Earlier results in PMC11809490 (RSC Advances, 2025).
Converted amounts (≈) assume the structure as drawn.

Columns and labels:
Conditions in all cases: cited from earlier work
P388 = system: P388
A-549 = system: A-549
HCT-8 = system: HCT-8
MDA-MB-231 = system: MDA-MB-231

## CN1C[C@@H](c2c[nH]c3cc(Br)ccc23)N(C)C[C@@H]1c1c[nH]c2cc(Br)ccc12 [Dragmacidin B]
P388
  IC50 P388: 15 µg/mL (≈ 29.9 µM)
A-549
  IC50 A-549: 1 to 10 µg/mL
HCT-8
  IC50 HCT-8: 1 to 10 µg/mL
MDA-MB-231
  IC50 MDA-MB-231: 1 to 10 µg/mL
